ChEMBL document CHEMBL5523756, “Molecular Transformers: Adaptive Multitarget Ligands for Esterase-Induced Transition from Analgesics to Anesthetics” (J Med Chem, 2024)
Activity calls are given as the source filed them.

Experiments:
[1] = Toxicity in ICR mouse assessed as histopathological changes in heart at 1.5 times ED50, iv administered as single dose and measured after 14 days by H and E staining based analysis; format: organism-based; details: in vivo, 336 h, time 14 day
Rattus norvegicus = assay: Analgesic activity in Sprague-Dawley rat model of mechanical nociceptive irritation assessed as response to tail pinch at 19 mg/kg administered as continuous infusion followed by maintenance at 3.25 mg/kg/min for 0 to 20 mins, 2.5 mg/kg/min for 20 to 30 mins and 2 mg/kg/min for 30 to 60 mins; format: functional, organism-based; details: route par
[2] = molecular target: T1, Sodium channel protein type 10 subunit alpha (Homo sapiens, UniProt Q9Y5Y9); assay: Inhibition of Nav1.8 channel (unknown origin) at resting state at -120 mV conditioning pulse by voltage clamp electrophysiological recording
Target sequence in this assay (Q9Y5Y9 whole entry): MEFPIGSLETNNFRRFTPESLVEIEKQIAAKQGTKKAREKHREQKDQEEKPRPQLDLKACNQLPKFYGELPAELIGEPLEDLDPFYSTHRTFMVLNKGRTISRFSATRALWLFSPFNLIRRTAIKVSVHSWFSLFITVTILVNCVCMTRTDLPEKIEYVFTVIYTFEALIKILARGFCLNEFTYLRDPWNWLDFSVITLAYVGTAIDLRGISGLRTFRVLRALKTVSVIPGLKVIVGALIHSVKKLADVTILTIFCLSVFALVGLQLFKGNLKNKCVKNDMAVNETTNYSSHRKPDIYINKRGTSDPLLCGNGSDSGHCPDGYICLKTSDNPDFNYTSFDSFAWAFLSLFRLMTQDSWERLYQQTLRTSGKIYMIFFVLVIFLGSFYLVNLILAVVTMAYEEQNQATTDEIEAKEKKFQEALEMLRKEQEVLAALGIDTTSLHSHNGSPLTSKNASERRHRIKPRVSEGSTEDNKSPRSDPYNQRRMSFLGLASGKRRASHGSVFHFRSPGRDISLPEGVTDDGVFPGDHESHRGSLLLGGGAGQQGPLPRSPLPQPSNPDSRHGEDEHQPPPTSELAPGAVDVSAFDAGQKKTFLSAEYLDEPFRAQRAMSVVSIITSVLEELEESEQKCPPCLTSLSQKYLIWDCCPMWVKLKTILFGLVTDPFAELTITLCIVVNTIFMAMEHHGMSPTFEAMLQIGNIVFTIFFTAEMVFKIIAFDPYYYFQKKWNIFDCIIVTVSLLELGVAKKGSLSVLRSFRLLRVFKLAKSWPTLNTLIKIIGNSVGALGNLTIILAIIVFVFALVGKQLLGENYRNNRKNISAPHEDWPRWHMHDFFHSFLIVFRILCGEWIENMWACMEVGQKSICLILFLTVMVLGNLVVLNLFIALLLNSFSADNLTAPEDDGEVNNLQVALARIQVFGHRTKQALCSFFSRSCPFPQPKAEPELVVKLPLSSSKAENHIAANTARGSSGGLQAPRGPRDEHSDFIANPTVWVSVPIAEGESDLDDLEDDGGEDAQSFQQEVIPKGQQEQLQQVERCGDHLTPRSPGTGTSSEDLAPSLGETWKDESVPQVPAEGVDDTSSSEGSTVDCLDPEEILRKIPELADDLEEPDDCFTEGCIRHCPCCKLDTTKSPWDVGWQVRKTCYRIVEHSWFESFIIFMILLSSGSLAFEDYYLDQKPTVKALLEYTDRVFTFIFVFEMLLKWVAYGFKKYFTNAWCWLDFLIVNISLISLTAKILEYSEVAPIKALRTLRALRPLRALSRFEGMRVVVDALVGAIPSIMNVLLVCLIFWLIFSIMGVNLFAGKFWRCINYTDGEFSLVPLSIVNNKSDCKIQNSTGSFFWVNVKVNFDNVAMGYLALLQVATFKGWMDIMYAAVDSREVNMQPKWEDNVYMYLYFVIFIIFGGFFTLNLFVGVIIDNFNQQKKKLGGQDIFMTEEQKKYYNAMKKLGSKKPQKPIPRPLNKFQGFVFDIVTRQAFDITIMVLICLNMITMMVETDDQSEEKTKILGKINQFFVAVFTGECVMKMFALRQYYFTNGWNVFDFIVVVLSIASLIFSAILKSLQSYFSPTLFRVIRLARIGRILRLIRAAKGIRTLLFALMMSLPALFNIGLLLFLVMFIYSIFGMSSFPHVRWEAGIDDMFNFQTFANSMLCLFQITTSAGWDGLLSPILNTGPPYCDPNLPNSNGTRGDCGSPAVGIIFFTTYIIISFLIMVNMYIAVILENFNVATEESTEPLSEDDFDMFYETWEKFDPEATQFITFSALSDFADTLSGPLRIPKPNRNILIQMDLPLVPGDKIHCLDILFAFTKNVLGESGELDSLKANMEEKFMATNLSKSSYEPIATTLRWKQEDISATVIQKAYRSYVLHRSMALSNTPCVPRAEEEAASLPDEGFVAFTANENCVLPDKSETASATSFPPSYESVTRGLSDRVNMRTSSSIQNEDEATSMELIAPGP

CYP1A2 = molecular target: T2, CYP1A2 (Homo sapiens, UniProt P05177); assay: Inhibition of CYP1A2 (unknown origin) using phenacetin as substrate at 10 uM relative to control; format: ADME; details: probe phenacetin
T2 sequence (P05177 whole entry): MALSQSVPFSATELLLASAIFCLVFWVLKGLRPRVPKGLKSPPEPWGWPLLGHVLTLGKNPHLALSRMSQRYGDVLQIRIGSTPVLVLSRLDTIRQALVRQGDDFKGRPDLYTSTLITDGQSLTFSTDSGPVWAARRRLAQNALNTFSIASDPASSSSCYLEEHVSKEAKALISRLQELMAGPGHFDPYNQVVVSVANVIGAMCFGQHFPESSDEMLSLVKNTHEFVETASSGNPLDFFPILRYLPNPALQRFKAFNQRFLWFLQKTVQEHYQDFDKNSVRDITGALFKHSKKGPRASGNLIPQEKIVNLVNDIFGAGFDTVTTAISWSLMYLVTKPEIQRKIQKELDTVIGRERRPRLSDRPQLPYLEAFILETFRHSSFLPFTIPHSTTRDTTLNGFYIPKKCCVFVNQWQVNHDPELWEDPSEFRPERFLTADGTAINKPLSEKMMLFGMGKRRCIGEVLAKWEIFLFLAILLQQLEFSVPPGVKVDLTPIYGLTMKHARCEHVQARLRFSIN

Cytochrome P450 2D6 = Cytochrome P450 2D6 (Homo sapiens, UniProt P10635); assay: Inhibition of CYP2D6 (unknown origin) using dextromethorphan as substrate at 10 uM; format: ADME
Chain of Cytochrome P450 2D6 (P10635 whole entry, the tested form may be a part): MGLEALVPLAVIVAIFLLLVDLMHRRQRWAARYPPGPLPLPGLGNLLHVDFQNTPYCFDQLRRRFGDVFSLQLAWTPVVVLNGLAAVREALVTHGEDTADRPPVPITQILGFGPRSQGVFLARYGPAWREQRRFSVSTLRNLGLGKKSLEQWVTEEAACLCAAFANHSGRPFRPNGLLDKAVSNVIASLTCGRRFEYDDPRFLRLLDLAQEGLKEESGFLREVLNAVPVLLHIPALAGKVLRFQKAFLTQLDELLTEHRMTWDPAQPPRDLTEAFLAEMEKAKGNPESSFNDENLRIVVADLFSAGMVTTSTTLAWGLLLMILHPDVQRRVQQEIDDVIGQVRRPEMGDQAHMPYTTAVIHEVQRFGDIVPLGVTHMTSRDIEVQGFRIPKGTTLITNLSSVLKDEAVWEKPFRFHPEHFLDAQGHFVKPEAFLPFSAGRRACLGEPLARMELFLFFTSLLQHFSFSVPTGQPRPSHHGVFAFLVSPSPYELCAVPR

[3] = Toxicity in Sprague-Dawley rat assessed as urea level at 19 mg/kg administered as continuous infusion followed by maintenance at 3.25 mg/kg/min for 0 to 20 mins, 2.5 mg/kg/min for 20 to 30 mins and 2 mg/kg/min for 30 to 60 mins; format: organism-based; details: in vivo, other, 1 h, route par
[4] = Drug metabolism in human liver microsomes assessed as propofol release by measuring half life at 1 mg/ml measured upto 360 mins by LC-MS analysis; format: ADME, Microsome; details: 6 h
[5] = Toxicity in ICR mouse assessed as survival rate at 1.5 times ED50 administered intravenously; details: in vivo, route iv
Cocaine esterase = molecular target: T3, Cocaine esterase (Homo sapiens, UniProt O00748); assay: Drug metabolism assessed as human CES2-mediated propofol release at 1 mg/ml measured upto 240 mins by LC-MS analysis; format: ADME; details: 4 h
T3 sequence (O00748 whole entry): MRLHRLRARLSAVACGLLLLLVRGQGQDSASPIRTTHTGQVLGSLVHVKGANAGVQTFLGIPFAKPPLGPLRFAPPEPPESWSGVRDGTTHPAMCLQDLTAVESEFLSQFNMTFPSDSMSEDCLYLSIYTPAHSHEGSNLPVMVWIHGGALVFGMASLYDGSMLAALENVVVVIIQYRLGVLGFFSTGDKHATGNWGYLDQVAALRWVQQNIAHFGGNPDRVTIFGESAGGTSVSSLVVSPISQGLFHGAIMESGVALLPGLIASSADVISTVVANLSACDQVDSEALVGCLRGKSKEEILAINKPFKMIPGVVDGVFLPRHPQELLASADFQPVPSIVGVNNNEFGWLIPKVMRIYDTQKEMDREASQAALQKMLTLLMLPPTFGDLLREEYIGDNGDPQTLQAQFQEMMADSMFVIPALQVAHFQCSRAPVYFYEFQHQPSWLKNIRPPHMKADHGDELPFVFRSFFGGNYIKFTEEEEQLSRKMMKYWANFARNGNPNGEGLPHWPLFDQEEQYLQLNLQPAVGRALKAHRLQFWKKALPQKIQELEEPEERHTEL

[6] = Toxicity in ICR mouse assessed as effect on biochemical parameters at 1.5 times ED50, iv administered as single dose; format: organism-based; details: in vivo
[7] = molecular target: T4, Sodium channel protein type 5 subunit alpha (Homo sapiens, UniProt Q14524); assay: Inhibition of Nav1.5 channel (unknown origin) at resting state at -120 mV conditioning pulse by voltage clamp electrophysiological recording; format: toxicity
T4 sequence (Q14524 whole entry): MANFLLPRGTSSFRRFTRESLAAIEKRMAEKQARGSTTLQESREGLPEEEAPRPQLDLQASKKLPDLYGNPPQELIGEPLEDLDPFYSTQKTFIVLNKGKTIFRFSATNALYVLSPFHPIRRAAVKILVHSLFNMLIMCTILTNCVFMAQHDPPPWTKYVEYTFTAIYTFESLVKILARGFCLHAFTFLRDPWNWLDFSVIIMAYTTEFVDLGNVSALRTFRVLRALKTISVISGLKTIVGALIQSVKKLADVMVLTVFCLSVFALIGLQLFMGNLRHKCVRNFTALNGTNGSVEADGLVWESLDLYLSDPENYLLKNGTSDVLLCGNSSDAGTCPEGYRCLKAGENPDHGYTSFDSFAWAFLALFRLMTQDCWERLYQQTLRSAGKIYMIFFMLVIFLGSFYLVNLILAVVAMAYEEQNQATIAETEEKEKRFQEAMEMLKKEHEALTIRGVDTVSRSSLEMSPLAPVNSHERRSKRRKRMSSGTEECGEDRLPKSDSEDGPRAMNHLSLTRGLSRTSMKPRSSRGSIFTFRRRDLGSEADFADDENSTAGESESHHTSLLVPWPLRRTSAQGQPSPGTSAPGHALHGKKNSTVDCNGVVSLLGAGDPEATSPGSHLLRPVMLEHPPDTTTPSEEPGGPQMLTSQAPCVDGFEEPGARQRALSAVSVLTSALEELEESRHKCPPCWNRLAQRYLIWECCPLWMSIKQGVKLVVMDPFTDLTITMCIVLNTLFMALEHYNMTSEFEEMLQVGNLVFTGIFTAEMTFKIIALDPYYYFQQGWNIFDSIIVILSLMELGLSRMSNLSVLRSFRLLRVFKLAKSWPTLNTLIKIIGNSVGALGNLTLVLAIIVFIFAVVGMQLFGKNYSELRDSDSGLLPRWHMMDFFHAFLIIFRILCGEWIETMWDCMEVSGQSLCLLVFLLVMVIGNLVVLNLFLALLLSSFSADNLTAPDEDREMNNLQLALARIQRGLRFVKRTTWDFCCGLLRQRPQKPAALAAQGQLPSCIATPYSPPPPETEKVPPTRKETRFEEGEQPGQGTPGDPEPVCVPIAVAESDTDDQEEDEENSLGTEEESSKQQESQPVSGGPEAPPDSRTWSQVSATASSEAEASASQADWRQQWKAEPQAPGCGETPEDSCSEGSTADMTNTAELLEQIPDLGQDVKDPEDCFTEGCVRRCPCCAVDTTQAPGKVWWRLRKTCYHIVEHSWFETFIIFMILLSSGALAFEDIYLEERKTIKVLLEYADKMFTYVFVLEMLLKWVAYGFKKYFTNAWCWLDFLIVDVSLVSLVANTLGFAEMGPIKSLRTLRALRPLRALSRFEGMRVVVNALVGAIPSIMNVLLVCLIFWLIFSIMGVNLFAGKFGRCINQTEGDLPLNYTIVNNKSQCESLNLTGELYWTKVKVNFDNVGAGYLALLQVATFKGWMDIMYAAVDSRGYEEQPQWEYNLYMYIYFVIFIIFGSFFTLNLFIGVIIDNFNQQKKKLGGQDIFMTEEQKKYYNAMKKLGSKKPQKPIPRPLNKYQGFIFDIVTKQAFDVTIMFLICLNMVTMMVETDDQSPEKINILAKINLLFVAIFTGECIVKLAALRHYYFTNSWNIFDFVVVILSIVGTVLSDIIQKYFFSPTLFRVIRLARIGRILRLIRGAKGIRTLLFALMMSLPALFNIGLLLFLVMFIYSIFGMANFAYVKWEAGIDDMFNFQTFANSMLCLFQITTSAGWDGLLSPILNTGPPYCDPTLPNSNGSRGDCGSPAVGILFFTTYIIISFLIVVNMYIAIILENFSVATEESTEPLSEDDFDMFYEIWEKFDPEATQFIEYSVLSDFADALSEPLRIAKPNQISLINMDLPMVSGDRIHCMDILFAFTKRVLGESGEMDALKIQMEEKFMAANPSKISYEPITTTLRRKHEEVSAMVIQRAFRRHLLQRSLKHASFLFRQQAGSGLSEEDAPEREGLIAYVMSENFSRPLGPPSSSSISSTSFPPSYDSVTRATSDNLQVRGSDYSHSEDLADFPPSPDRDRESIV

[8] = Stability of compound assessed as porcine liver esterase mediated propofol release by measuring half life at 1 mg/ml by HPLC analysis; format: ADME, Sus scrofa; details: pig, isolated protein
[9] = Toxicity in Sprague-Dawley rat assessed as effect on end inspiratory pause at 19 mg/kg administered as continuous infusion followed by maintenance at 3.25 mg/kg/min for 0 to 20 mins, 2.5 mg/kg/min for 20 to 30 mins and 2 mg/kg/min for 30 to 60 mins and measured every 5 mins for 60 mins by whole-body plethysmography; format: organism-based; details: in vivo, other, 1 h, route par
[10] = Toxicity in Sprague-Dawley rat assessed as histopathological changes in heart at 19 mg/kg administered as continuous infusion followed by maintenance at 3.25 mg/kg/min for 0 to 20 mins, 2.5 mg/kg/min for 20 to 30 mins and 2 mg/kg/min for 30 to 60 mins and measured after 14 days by H and E staining based analysis; format: organism-based; details: in vivo, other, 336 h, route par, time 14 day
[11] = Toxicity in Sprague-Dawley rat assessed as effect on alpha-HBDH level at 19 mg/kg administered as continuous infusion followed by maintenance at 3.25 mg/kg/min for 0 to 20 mins, 2.5 mg/kg/min for 20 to 30 mins and 2 mg/kg/min for 30 to 60 mins; format: organism-based; details: in vivo, other, 1 h, route par
[12] = Toxicity in Sprague-Dawley rat assessed as reduction in heart rate at 19 mg/kg administered as continuous infusion followed by maintenance at 3.25 mg/kg/min for 0 to 20 mins, 2.5 mg/kg/min for 20 to 30 mins and 2 mg/kg/min for 30 to 60 mins by electrocardiogram recording; format: organism-based; design: scale not given: the % may be the effect or the level left; details: in vivo, other, 1 h, route par
[13] = molecular target: T1, Sodium channel protein type 10 subunit alpha; assay: Binding affinity to Nav1.8 (unknown origin) expressed in HEK293T cells assessed as retention time of compound at 1 mg/ml by cell membrane chromatography; format: cell membranes
Target sequence in this assay (Q9Y5Y9 whole entry, looked up): as the sequence (Q9Y5Y9 whole entry) above

Mus musculus = assay: Analgesic effect in ICR mouse model of CFA-induced chronic inflammatory pain assessed as increase in paw withdrawal threshold at 0.07 mmol/kg, ip measured upto 90 mins by Von Frey test; format: functional, organism-based
[14] = molecular target: T4, Sodium channel protein type 5 subunit alpha; assay: Inhibition of Nav1.5 channel (unknown origin) at half inactivation state at -120 mV conditioning pulse by voltage clamp electrophysiological recording; format: toxicity
DRG neuron [15] = assay: Modulation of CFA-induced male ICR mouse DRG neuron excitability assessed as reduction in resting membrane potential at 10 uM by whole cell […] assay; format: functional, cell-based
DRG neuron [16] = assay: Modulation of CFA-induced male ICR mouse DRG neuron excitability assessed as reduction in action potential's rheobase at 10 uM by whole cell […] assay; format: functional, cell-based

**Q.** What does the source list for `CCN(CC)CCOC(=O)Oc1c(C(C)C)cccc1C(C)C.Cl`?
**A.** Activity [1]: Non-Toxic; Activity (Rattus norvegicus): Active; IC50 [2]: > 30 µM; inhibition at 10 µM (CYP1A2): 26.2%; inhibition (INH) (Cytochrome P450 2D6): Not Active; Activity [3]: 11.03 mmol/L; t1/2 [4]: 54.63 min; survival [5]: 100%; Drug metabolism (Cocaine esterase): Metabolite_Detected; Activity [6]: Non-Toxic; IC50 [7]: 23.5 µM; t1/2 [8]: 8.609 min; Activity [9]: Non-Toxic; Activity [10]: Non-Toxic; Activity [11]: Non-Toxic; Activity [12]: < 20%; Retention time [13]: 112 min; Activity (Mus musculus): Active; IC50 [14]: 20.5 µM; Activity (DRG neuron [15]): inactive; Activity (DRG neuron [16]): inactive
